Experimental data: ChEMBL document CHEMBL4052712, “Design and optimization of highly-selective, broad spectrum fungal CYP51 inhibitors” (Bioorg Med Chem Lett, 2017)
Active and inactive are the calls of the source. The rule behind the calls is not given here.

Tests used:
[1] = target: Lanosterol 14-alpha demethylase (Candida albicans (strain SC5314 / ATCC MYA-2876) (Yeast), UniProt P10613); assay: Inhibition of CYP51 in Candida albicans assessed as inhibition of microbe growth incubated for 48 hrs by CLSI M27-A3 guideline based method
Lanosterol 14-alpha demethylase, sequence (P10613 whole entry): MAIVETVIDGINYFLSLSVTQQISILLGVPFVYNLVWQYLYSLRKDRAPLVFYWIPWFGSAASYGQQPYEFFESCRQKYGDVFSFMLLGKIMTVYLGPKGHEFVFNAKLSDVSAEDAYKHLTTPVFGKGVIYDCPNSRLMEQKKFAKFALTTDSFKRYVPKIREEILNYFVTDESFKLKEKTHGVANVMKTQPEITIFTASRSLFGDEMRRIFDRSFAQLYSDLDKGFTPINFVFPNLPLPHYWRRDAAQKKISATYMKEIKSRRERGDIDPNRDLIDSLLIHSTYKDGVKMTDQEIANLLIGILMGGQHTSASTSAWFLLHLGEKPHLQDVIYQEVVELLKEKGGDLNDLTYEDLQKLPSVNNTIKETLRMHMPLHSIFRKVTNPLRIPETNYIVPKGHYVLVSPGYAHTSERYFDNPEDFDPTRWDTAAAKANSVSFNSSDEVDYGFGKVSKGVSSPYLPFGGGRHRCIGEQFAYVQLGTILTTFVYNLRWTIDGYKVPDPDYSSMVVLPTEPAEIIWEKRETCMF

Cytochrome P450 3A4 = Cytochrome P450 3A4 (Homo sapiens, UniProt P08684); assay: Inhibition of CYP3A4 in human hepatocyte microsomes using testosterone substrate by HPLC/MS/MS method; type: ADME
Cytochrome P450 3A4, sequence (P08684 whole entry): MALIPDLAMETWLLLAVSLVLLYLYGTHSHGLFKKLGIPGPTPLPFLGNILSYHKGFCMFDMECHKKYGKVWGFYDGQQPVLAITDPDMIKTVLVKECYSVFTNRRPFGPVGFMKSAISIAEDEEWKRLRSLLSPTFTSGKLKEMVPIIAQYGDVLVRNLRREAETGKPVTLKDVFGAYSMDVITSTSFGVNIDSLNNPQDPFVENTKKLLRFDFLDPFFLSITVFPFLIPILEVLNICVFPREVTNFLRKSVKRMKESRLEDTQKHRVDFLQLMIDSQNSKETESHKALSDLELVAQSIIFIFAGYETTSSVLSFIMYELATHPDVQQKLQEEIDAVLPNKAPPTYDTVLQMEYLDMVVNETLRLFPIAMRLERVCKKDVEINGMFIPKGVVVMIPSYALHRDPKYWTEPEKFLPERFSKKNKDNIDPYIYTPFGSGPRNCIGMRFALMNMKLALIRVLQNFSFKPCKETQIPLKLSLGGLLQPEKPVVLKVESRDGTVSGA

[2] = target: Lanosterol 14-alpha demethylase (Aspergillus) (UniProt B8NUK6+Q9P8R0+G4WW85); assay: Inhibition of CYP51 in Aspergillus fumigatus assessed as inhibition of microbe growth incubated for 48 to 168 hrs by CLSI M27-A3 guideline based method

SMILES | MIC50 [1] | IC50 (Cytochrome P450 3A4) | MIC100 [2]
OC(Cn1cnnn1)(c1ccc(F)cc1F)C(F)(F)c1ccc(C#Cc2ccc(C(F)(F)F)cc2)cn1 (configuration not stated) | 0.016 µg/mL | > 200 µM | > 64 µg/mL
OC(Cn1cnnn1)(c1ccc(F)cc1F)C(F)(F)c1ccc(C#Cc2ccc(OCC(F)F)cc2)cn1 (configuration not stated) | < 0.001 µg/mL | 60 µM | 64 µg/mL
OC(Cn1cnnn1)(c1ccc(F)cc1F)C(F)(F)c1ccc(C#Cc2cccc(Cl)c2)cn1 (configuration not stated) | 0.031 µg/mL | > 200 µM | > 64 µg/mL
OC(Cn1cnnn1)(c1ccc(F)cc1F)C(F)(F)c1ccc(C#Cc2ccc(OCc3ccc(OC(F)(F)F)cc3)cc2)cn1 (configuration not stated) | 0.25 µg/mL | > 200 µM | > 64 µg/mL
OC(Cn1cnnn1)(c1ccc(F)cc1F)C(F)(F)c1ccc(C#Cc2ccc(Cl)cc2)cn1 (configuration not stated) | 0.004 µg/mL | > 200 µM | > 64 µg/mL
OC(Cn1cnnn1)(c1ccc(F)cc1F)C(F)(F)c1ccc(C#Cc2ccc(NCC(F)(F)F)cc2)cn1 (configuration not stated) | < 0.001 µg/mL | 10 µM | 4 µg/mL
OC(Cn1cnnn1)(c1ccc(F)cc1F)C(F)(F)c1ccc(C#Cc2cccc(F)c2)cn1 (configuration not stated) | 0.004 µg/mL | > 200 µM | > 64 µg/mL
OC(Cn1cnnn1)(c1ccc(F)cc1F)C(F)(F)c1ccc(C#Cc2ccc(OCc3ccc(CC(F)F)cc3)cc2)cn1 (single isomer, unassigned; (+)) [listing 1 of 2 here] | 0.031 µg/mL | > 200 µM | 
OC(Cn1cnnn1)(c1ccc(F)cc1F)C(F)(F)c1ccc(C#Cc2ccc(F)cc2)cn1 (single isomer, unassigned; (+)) [listing 1 of 2 here] | < 0.001 µg/mL | 198 µM | 
N#Cc1ccc(COc2ccc(C#Cc3ccc(C(F)(F)C(O)(Cn4cnnn4)c4ccc(F)cc4F)nc3)cc2)cc1F (single isomer, unassigned; (+)) [listing 1 of 2 here] | 0.004 µg/mL | > 200 µM | 
N#Cc1ccc(COc2ccc(C#Cc3ccc(C(F)(F)C(O)(Cn4cnnn4)c4ccc(F)cc4F)nc3)cc2)cc1F (single isomer, unassigned; (+)) [listing 2 of 2 here] |  |  | 0.5 µg/mL
OC(Cn1cnnn1)(c1ccc(F)cc1F)C(F)(F)c1ccc(C#Cc2ccc(F)cc2)cn1 (single isomer, unassigned; (+)) [listing 2 of 2 here] |  |  | 16 µg/mL
OC(Cn1cnnn1)(c1ccc(F)cc1F)C(F)(F)c1ccc(C#Cc2ccc(OCc3ccc(CC(F)F)cc3)cc2)cn1 (single isomer, unassigned; (+)) [listing 2 of 2 here] |  |  | 2 µg/mL
OC(Cn1cnnn1)(c1ccc(F)cc1F)C(F)(F)c1ccc(C#Cc2ccc(F)cc2)cn1 (single isomer, unassigned; (-)) |  |  | inactive
OC(Cn1cnnn1)(c1ccc(F)cc1F)C(F)(F)c1ccc(C#Cc2ccc(F)cc2)cn1 (stereo in doubt; 6a) [listing 1 of 2 here] |  | 100 µM | 
OC(Cn1cnnn1)(c1ccc(F)cc1F)C(F)(F)c1ccc(C#Cc2ccc(F)cc2)cn1 (stereo in doubt; 6a) [listing 2 of 2 here] |  |  | > 64 µg/mL
OC(Cn1cnnn1)(c1ccc(F)cc1F)C(F)(F)c1ccc(C#Cc2ccc(OCc3ccc(CC(F)F)cc3)cc2)cn1 (stereo in doubt; 7e) [listing 1 of 2 here] | 0.0625 µg/mL | > 200 µM | 
OC(Cn1cnnn1)(c1ccc(F)cc1F)C(F)(F)c1ccc(C#Cc2ccc(OCc3ccc(CC(F)F)cc3)cc2)cn1 (stereo in doubt; 7e) [listing 2 of 2 here] |  |  | 4 µg/mL
N#Cc1ccc(COc2ccc(C#Cc3ccc(C(F)(F)C(O)(Cn4cnnn4)c4ccc(F)cc4F)nc3)cc2)cc1 (stereo in doubt; 7f) [listing 1 of 2 here] | 0.031 µg/mL | > 200 µM | 
N#Cc1ccc(COc2ccc(C#Cc3ccc(C(F)(F)C(O)(Cn4cnnn4)c4ccc(F)cc4F)nc3)cc2)cc1 (stereo in doubt; 7f) [listing 2 of 2 here] |  |  | 8 µg/mL
N#Cc1ccc(COc2ccc(C#Cc3ccc(C(F)(F)C(O)(Cn4cnnn4)c4ccc(F)cc4F)nc3)cc2)cc1F (stereo in doubt; 8a) [listing 1 of 2 here] | 0.031 µg/mL | > 200 µM | 
N#Cc1ccc(COc2ccc(C#Cc3ccc(C(F)(F)C(O)(Cn4cnnn4)c4ccc(F)cc4F)nc3)cc2)cc1F (stereo in doubt; 8a) [listing 2 of 2 here] |  |  | 1 µg/mL
